Measurements taken from US9650379B2 (CHONG KUN DANG PHARMACEUTICAL CORP., priority 2013, dated 2017).

Legend:
[1] = biological target: T1, HDAC6 human recombinant (Homo sapiens, UniProt Q9UBN7); assay: Inhibition of HDAC6 activity (fluorimetric assay); assay type: biochemical; details: test concentrations 0.1, 1, 10, 100 and 1000 nM; 37° C., 60 minutes
T1 construct: purchased Calbiochem 382180
T1 sequence (Q9UBN7 1-1215): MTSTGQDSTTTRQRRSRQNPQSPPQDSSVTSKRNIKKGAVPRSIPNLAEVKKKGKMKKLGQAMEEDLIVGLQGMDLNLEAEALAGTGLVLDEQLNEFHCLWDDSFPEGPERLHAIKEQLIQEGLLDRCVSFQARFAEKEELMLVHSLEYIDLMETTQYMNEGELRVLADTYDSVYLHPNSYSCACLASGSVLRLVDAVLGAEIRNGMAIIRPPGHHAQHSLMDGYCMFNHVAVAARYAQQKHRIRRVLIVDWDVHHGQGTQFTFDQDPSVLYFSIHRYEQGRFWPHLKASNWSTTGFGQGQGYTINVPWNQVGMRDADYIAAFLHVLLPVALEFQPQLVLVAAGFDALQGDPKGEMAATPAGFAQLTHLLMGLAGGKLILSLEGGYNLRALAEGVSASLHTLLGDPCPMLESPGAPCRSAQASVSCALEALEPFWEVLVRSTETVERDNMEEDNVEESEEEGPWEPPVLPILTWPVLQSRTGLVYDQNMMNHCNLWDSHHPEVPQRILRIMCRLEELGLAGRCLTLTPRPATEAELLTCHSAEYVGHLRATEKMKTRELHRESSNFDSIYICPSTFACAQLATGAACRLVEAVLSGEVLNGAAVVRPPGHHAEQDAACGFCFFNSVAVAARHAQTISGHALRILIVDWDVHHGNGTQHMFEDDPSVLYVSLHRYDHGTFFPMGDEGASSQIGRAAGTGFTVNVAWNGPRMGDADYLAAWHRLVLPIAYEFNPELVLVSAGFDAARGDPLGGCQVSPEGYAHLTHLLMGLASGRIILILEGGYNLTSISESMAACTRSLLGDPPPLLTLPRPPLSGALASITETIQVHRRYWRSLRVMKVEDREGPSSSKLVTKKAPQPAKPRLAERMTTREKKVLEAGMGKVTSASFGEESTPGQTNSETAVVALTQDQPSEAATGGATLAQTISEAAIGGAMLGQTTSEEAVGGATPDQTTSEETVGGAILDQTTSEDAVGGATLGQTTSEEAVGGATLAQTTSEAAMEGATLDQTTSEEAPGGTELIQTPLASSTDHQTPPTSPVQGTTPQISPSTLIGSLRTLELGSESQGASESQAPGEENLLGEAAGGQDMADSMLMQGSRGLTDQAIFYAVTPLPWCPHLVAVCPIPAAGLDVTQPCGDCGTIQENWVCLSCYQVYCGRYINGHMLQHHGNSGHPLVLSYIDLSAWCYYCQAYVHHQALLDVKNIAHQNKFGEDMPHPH
In short: (§1)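 HDAC1 tested with the kit assay mixture at 100, 1000 and 10000 nM compound; recombinant human HDAC6 at 0.1, 1, 10, 100 and 1000 nM. Reaction ran 60 min at 37° C, then developer was added for 30 min at 37° C and fluorescence quantified.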

[2] = biological target: T2, HDAC1 (Homo sapiens, UniProt Q13547); assay: Inhibition of HDAC1 activity (HDAC1 fluorimetric drug discovery assay kit); assay type: biochemical; details: test concentrations 100, 1000 and 10000 nM; 37° C., 60 minutes
T2 construct: purchased Enzolifesciences BML-AK511
T2 sequence (Q13547 whole entry): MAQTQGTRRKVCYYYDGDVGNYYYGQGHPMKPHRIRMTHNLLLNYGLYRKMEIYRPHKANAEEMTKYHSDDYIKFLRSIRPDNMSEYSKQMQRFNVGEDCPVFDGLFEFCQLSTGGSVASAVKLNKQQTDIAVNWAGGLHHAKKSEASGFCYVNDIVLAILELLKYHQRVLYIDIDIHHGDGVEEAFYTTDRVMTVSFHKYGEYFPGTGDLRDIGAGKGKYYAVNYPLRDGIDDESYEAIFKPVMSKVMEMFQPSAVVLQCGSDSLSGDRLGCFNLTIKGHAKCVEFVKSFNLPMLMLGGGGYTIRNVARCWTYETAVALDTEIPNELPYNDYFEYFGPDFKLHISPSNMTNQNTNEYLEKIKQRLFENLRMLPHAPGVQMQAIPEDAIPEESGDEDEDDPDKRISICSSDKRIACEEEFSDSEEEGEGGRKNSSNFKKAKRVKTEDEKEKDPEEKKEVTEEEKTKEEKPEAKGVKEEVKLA
In short: as §1

Row | IC50 [1] [nM] | IC50 [2] [nM] | Compound
1 | 7.6 | 530 | CN1CCN(c2ccccc2CN2CCC(c3ccnc4c3ccn4Cc3ccc(C(=O)NO)cc3)CC2)CC1 [Compound 984, N-hydroxy-4-((4-(1-(2-(4-methylpiperazin-1-yl)benzyl)piperidin-4-yl)-1H-pyrrolo[2,3-b]pyridin-1-yl)methyl)benzamide]
2 | 7.4 | 1090 | O=C(NO)c1ccc(Cn2ccc3cc(C4CCN(C(=O)c5ccc(CN6CCOCC6)cc5)CC4)cnc32)cc1 [Compound 897, N-hydroxy-4-((5-(1-(4-(morpholinomethyl)benzoyl)piperidin-4-yl)-1H-pyrrolo[2,3-b]pyridin-1-yl)methyl)benzamide]
3 | 1.24 | 640 | O=C(NO)c1ccc(Cn2ccc3cc(N4CCC5(CC4)CN(Cc4ccccn4)C5)cnc32)cc1 [Compound 1126, N-hydroxy-4-((5-(2-(pyridin-2-ylmethyl)-2,7-diazaspiro[3.5]nonan-7-yl)-1H-pyrrolo[2,3-b]pyridin-1-yl)methyl)benzamide]
4 | 4.6 | 1360 | C[C@@H]1CN(c2ccnc3c2ccn3Cc2ccc(C(=O)NO)cc2)C[C@H](C)N1Cc1ccccc1 [Compound 990, 4-((4-((3S,5R)-4-benzyl-3,5-dimethylpiperazin-1-yl)-1H-pyrrolo[2,3-b]pyridin-1-yl)methyl)-N-hydroxybenzamide]
5 | 5.7 | 320 | O=C(NO)c1ccc(Cn2ccc3c(C4CCN(Cc5ccc(CN6CCOCC6)cc5)CC4)ccnc32)cc1 [Compound 987, N-hydroxy-4-((4-(1-(4-(morpholinomethyl)benzyl)piperidin-4-yl)-1H-pyrrolo[2,3-b]pyridin-1-yl)methyl)benzamide]
6 | 3.7 | 830 | CC(C)(O)CN1CC2(CCN(c3cnc4c(ccn4Cc4ccc(C(=O)NO)cc4)c3)CC2)C1 [Compound 956, N-hydroxy-4-((5-(2-(2-hydroxy-2-methylpropyl)-2,7-diazaspiro[3.5]nanan-7-yl)-1H-pyrrolo[2,3-b]pyridin-1-yl)methyl)benzamide]
7 | 7.5 | 1140 | O=C(NO)c1ccc(Cn2ccc3cc(C4CCN(Cc5ccc(CN6CCOCC6)cc5)CC4)cnc32)cc1 [Compound 882, N-hydroxy-4-((5-(1-(4-(morpholinomethyl)benzyl)piperidin-4-yl)-1H-pyrrolo[2,3-b]pyridin-1-yl)methyl)benzamide]

Continued, molecule first:

Row | Compound | IC50 [1] [nM] | IC50 [2] [nM]
8 | CN1CCN(Cc2cccc(CN3CCC(c4cnc5c(ccn5Cc5ccc(C(=O)NO)cc5)c4)CC3)c2)CC1 [Compound 879, N-hydroxy-4-((5-(1-(3-((4-methylpiperazin-1-yl)methyl)benzyl)piperidin-4-yl)-1H-pyrrolo[2,3-b]pyridin-1-yl)methyl)benzamide] | 7.6 | 1050
9 | O=C(NO)c1ccc(Cn2ccc3c(N4CCN(Cc5ccc(C(F)(F)F)cc5)CC4)ccnc32)cc1 [Compound 706, N-hydroxy-4-((4-(4-(4-(trifluoromethyl)benzyl)piperazin-1-yl)-1H-pyrrolo[2,3-b]pyridin-1-yl)methyl)benzamide] | 30 | 2330
10 | COc1ccc(CN2CCN(c3ccnc4c3ccn4Cc3ccc(C(=O)NO)cc3)CC2)cc1 [Compound 705, N-hydroxy-4-((4-(4-(4-methoxybenzyl)piperazin-1-yl)-1H-pyrrolo[2,3-b]pyridin-1-yl)methyl)-benzamide] | 11 | 1120
11 | O=C(NO)c1ccc(Cn2ccc3cc(C4CCN(Cc5ncccn5)CC4)cnc32)cc1 [Compound 881, N-hydroxy-4-((5-(1-(pyrimidin-2-ylmethyl)piperidin-4-yl)-1H-pyrrolo[2,3-b]pyridine-1-yl)methyl)benzamide] | 5.3 | 850
12 | Cn1ncc2ccc(-c3cnc4c(ccn4Cc4ccc(C(=O)NO)cc4)c3)cc21 [Compound 685, N-hydroxy-4-((5-(1-methyl-1H-indazol-6-yl)-1H-pyrrolo[2,3-b]pyridin-1-yl)methyl)benzamide] | 6 | 790
13 | CC(C)(C)OC(=O)NC1CCN(c2cnc3c(ccn3Cc3ccc(C(=O)NO)cc3)c2)CC1 [Compound 809, tert-butyl (1-(1-(4-(hydroxycarbamoyl)benzyl)-1H-pyrrolo[2,3-b]pyridin-5-yl)piperidin-4-yl)carbamate] | 30 | 3720
14 | O=C(NO)c1ccc(Cn2ccc3cc(C4CCN(Cc5noc(C(F)(F)F)n5)CC4)cnc32)cc1 [Compound 845, N-hydroxy-4-((5-(1-((5-(trifluoromethyl)-1,2,4-oxadiazol-3-yl)methyl)piperidin-4-yl)-1H-pyrrolo[2,3-b]pyridin-1-yl)methyl)benzamide] | 1.2 | 300
15 | CN1CCC(c2cnc3c(ccn3Cc3ccc(C(=O)NO)cc3)c2)CC1 [Compound 867, N-hydroxy-4-((5-(1-methylpiperidin-4-yl)-1H-pyrrolo[2,3-b]pyridin-1-yl)methyl)benzamide] | 7.8 | 620
16 | O=C(NO)c1ccc(Cn2ccc3c(N4CCN(Cc5cccnc5)CC4)ccnc32)cc1 [Compound 849, N-hydroxy-4-((4-(4-(pyridin-3-ylmethyl)piperazin-1-yl)-1H-pyrrolo[2,3-b]pyridin-1-yl)methyl)benzamide] | 11.7 | 290
17 | O=C(NO)c1ccc(Cn2ccc3cc(C4CCN(Cc5cccnc5)CC4)cnc32)cc1 [Compound 840, N-hydroxy-4-((5-(1-(pyridin-3-ylmethyl)piperidin-4-yl)-1H-pyrrolo[2,3-b]pyridin-1-yl)methyl)benzamide] | 4.1 | 610
18 | CCC(F)(CC)CN1CCN(c2ccnc3c2ccn3Cc2ccc(C(=O)NO)cc2)CC1 [Compound 764, 4-((4-(4-(2-ethyl-2-fluorobutyl)piperazin-1-yl)-1H-pyrrolo[2,3-b]pyridin-1-yl)methyl)-N-hydroxybenzamide] | 91 | 3220
19 | O=C(NO)c1ccc(Cn2ccc3cc(C4CCN(Cc5ccncc5)CC4)cnc32)cc1 [Compound 841, N-hydroxy-4-((5-(1-(pyridin-4-ylmethyl)piperidin-4-yl)-1H-pyrrolo[2,3-b]pyridin-1-yl)methyl)benzamide] | 6.9 | 540
20 | CC(C)(O)CN1CC=C(c2cnc3c(ccn3Cc3ccc(C(=O)NO)cc3)c2)CC1 [Compound 686, N-hydroxy-4-((5-(1-(2-hydroxy-2-methylpropyl)-1,2,3,6-tetrahydropyridin-4-yl)-1H-pyrrolo[2,3-b]pyridin-1-yl)methyl)benzamide] | 39 | 2740
21 | C[C@@H]1CN(c2cnc3c(ccn3Cc3ccc(C(=O)NO)cc3)c2)C[C@H](C)N1CC(C)(C)O [Compound 865, N-hydroxy-4-((5-((3S,5R)-4-(2-hydroxy-2-methylpropyl)-3,5-dimethylpiperazin-1-yl)-1H-pyrrolo[2,3-b]pyridin-1-yl)methyl)benzamide] | 12 | 680
22 | O=C(NO)c1ccc(Cn2ccc3ccc(C4=CCOCC4)nc32)cc1 [Compound 743, 4-((6-(3,6-dihydro-2H-pyran-4-yl)-1H-pyrrolo[2,3-b]pyridin-1-yl)methyl)-N-hydroxybenzamide] | 25 | 190
23 | O=C(NO)c1ccc(Cn2ccc3cc(C4=CCNCC4)cnc32)cc1 [Compound 693, N-hydroxy-4-((5-(1,2,3,6-tetrahydropyridin-4-yl)-1H-pyrrolo[2,3-b]pyridin-1-yl)methyl)benzamide] | 3 | 520
